According to ChEMBL document CHEMBL6127064, “Discovery of GNE-6893, a Potent, Selective, Orally Bioavailable Small Molecule Inhibitor of HPK1” (ACS Med Chem Lett, 2024):
≈ marks a conversion by molar mass, not a printed value.

How the values were obtained:
[1] = Inhibition of human full length HPK1-T165E/S171E mutant expressed in baculovirus expression system assessed as inhibition of SLP76 phosphorylation using biotinylated SLP76 as substrate preincubated for 30 mins followed by incubation with substrate in presence of ATP and measured for 60 mins by HTRF assay
[2] = Half life in Sprague-Dawley rat at 0.5 mg/kg, iv measured for 8 hrs by LC-MS/MS analysis; format: ADME, organism-based; conditions: in vivo
[3] = Kinetic solubility of the compound in PBS at pH 7.4; format: physicochemical; conditions: read-out: Kinetic_solubility
[4] = Apparent permeability of the compound across apical to basolateral side in dog MDCK1 cells at 10 uM by LC-MS/MS analysis; format: ADME, cell-based, Canis lupus familiaris; conditions: MDCK
[5] = Oral bioavailability in Sprague-Dawley rat; format: ADME, organism-based; conditions: in vivo
[6] = target: T1, Mitogen-activated protein kinase kinase kinase kinase 1 (Homo sapiens, UniProt Q92918); test: Inhibition of HPK1 in primary human Pan T cells assessed as increase in IL-2 secretion pretreated for 30 mins followed by incubation with anti-CD3/anti-CD28 and measured after 4 hrs by MSD assay; format: cell-based, T cell
[7] = Oral bioavailability in C57BL/6 mouse at 25 mg/kg measured for 24 hrs by LC-MS/MS analysis; format: ADME, organism-based; conditions: C57BL/6, mouse, in vivo
[8] = Volume of distribution at steady state in Sprague-Dawley rat at 0.5 mg/kg, iv measured for 8 hrs by LC-MS/MS analysis; format: ADME, organism-based; conditions: in vivo, read-out: Vdss
[9] = target: T1, Mitogen-activated protein kinase kinase kinase kinase 1; test: Inhibition of HPK1 in human Jurkat cells assessed as inhibition of anti-CD3/anti-CD28-induced SLP76 phosporylation at Ser376 residue incubated for 30 mins by ELISA; format: cell-based
[10] = Clearance in Sprague-Dawley rat at 0.5 mg/kg, iv measured for 8 hrs by LC-MS/MS analysis; format: ADME, organism-based; conditions: in vivo
[11] = Half life in C57BL/6 mouse at 25 mg/kg, po or 1 mg/kg, iv measured for 24 hrs by LC-MS/MS analysis; format: ADME, organism-based; conditions: in vivo
[12] = Volume of distribution at steady state in C57BL/6 mouse at 25 mg/kg, po or 1 mg/kg, iv measured for 24 hrs by LC-MS/MS analysis; format: ADME, organism-based; conditions: in vivo

T1 sequence (Q92918 whole entry): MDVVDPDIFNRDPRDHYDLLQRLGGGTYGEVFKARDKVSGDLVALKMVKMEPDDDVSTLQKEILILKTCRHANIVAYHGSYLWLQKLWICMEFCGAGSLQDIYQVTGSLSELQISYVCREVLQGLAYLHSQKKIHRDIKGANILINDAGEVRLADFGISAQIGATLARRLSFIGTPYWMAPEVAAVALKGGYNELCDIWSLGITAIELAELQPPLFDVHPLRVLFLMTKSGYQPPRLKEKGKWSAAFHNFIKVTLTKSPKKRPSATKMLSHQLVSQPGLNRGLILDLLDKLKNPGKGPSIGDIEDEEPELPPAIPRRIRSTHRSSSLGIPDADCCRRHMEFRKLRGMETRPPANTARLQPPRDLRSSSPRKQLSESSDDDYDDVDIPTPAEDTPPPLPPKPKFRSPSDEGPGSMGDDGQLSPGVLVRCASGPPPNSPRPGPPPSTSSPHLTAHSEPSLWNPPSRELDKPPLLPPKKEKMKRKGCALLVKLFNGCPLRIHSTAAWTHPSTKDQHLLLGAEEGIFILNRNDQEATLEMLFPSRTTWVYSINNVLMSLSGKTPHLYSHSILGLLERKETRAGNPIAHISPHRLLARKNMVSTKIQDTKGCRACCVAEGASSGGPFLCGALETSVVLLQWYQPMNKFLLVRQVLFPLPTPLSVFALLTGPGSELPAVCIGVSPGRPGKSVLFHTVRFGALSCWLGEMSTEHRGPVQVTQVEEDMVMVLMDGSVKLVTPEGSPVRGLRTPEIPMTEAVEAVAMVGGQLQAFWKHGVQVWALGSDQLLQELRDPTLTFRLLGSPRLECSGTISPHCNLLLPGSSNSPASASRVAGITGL

Row | SMILES | Ki [1] [nM] | half-life [2] [h] | solubility kinetic [3] [µM] | Papp A→B at 10 µM [4] [×10⁻⁶ cm/s] | bioavailability [5] [%] | EC50 [6] [nM] | bioavailability [7] [%] | Vd [8] [L/kg] | IC50 [9] [nM] | clearance [10] [mL/min/kg] | half-life [11] [h] | Vdss [12] [L/kg]
1 | Cc1ccncc1-c1cc2cc(Nc3cnn([C@@H](C)C#N)c3)ncc2c(N)c1F | 32 | – | – | – | – | – | – | – | – | – | – | –
2 | Cc1c(-c2cc3cc(NC(=O)OC4CCOCC4)ncc3c(N)c2F)cnc2c1NCCO2 | < 0.019 | 1.5 | 1.5 (≈ 0.68 µg/mL) | 18 | 16 | 39 | 31 | 1.5 | 97 | 17 | 1.1 | 1.3
3 | Cc1ccncc1-c1cc2cc(Nc3cc4n(n3)CC(=O)N(C)CC4)ncc2c(N)c1F | 0.16 | – | – | – | – | – | – | – | – | – | – | –
4 | Cc1c(N)cncc1-c1cc2cc(NC(=O)OC3CCOCC3)ncc2c(N)c1F | 0.498 | 1.2 | 13 (≈ 5.35 µg/mL) | 15 | 94 | – | – | 3.2 | – | 38 | 1.3 | 1.7
